Assay results from ChEMBL document CHEMBL1201862, “PubChem BioAssay data set” (2004).
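Protocol summary: plate cells (96-well), add compound at 5 concentrations, incubate 48 h, interpolate endpoints linearly. GI50 is the concentration that inhibits growth by half.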 Activity calls are given as the source filed them. No stated cut-off is given here; in the data, active = GI50 up to about 1.1 µM and inactive = higher.

Key:
Experiment in all cases: NCI-60 cell line screen, 48 h
[1] = test system: IGROV-1
[2] = test system: NCI-H460
[3] = test system: EKVX
[4] = test system: PC-3
[5] = test system: NCI-H23
[6] = test system: UO-31
[7] = test system: SNB-19
[8] = test system: UACC-257
[9] = test system: U-251
[10] = test system: RXF 393
[11] = test system: Malme-3M
[12] = test system: UACC-62
[13] = test system: OVCAR-4
[14] = test system: SF-295
[15] = test system: SF-268
[16] = test system: 786-0
[17] = test system: HCC 2998
[18] = test system: CAKI-1
[19] = test system: OVCAR-8
[20] = test system: COLO 205
[21] = test system: BT-549
[22] = test system: M14
[23] = test system: CCRF-CEM
[24] = test system: SF-539
[25] = test system: NCI-H226
[26] = test system: SR
[27] = test system: SN12C
[28] = test system: HOP-62
[29] = test system: HL-60
[30] = test system: KM12
[31] = test system: A549
[32] = test system: SW-620
[33] = test system: TK-10
[34] = test system: MOLT-4
[35] = test system: NCI-H522
[36] = test system: A498
[37] = test system: ACHN
[38] = test system: Hs-578T
[39] = test system: DU-145
[40] = test system: OVCAR-5
[41] = test system: MDA-N
[42] = test system: SK-OV-3
[43] = test system: MDA-MB-435
[44] = test system: MDA-MB-231
[45] = test system: MCF7
[46] = test system: HCT-116
[47] = test system: HT-29
[48] = test system: K562
[49] = test system: T47D
[50] = test system: HOP-92
[51] = test system: OVCAR-3
[52] = test system: SK-MEL-5
[53] = test system: SNB-75
[54] = test system: SK-MEL-28
[55] = test system: LOX IMVI
[56] = test system: SK-MEL-2
[57] = test system: NCI/ADR-RES
[58] = test system: HCT-15
[59] = test system: RPMI-8226

CCCN1CCC(=O)N(CCC(F)(F)C(F)(F)C(F)(F)C(F)(F)C(F)(F)C(F)(F)F)C1=S
GI50 [1]: > 100 µM (inactive)
GI50 [2]: > 100 µM (inactive)
GI50 [3]: > 100 µM (inactive)
GI50 [4]: > 100 µM (inactive)
GI50 [5]: > 100 µM (inactive)
GI50 [6]: > 100 µM (inactive)
GI50 [7]: > 100 µM (inactive)
GI50 [8]: > 100 µM (inactive)
GI50 [9]: > 100 µM (inactive)
GI50 [10]: 99.5 µM (inactive)
GI50 [11]: > 100 µM (inactive)
GI50 [12]: > 100 µM (inactive)
GI50 [13]: > 100 µM (inactive)
GI50 [14]: > 100 µM (inactive)
GI50 [15]: > 100 µM (inactive)
GI50 [16]: > 100 µM (inactive)
GI50 [17]: 94.6 µM (inactive)
GI50 [18]: > 100 µM (inactive)
GI50 [19]: > 100 µM (inactive)
GI50 [20]: 69.7 µM (inactive)
GI50 [21]: > 100 µM (inactive)
GI50 [22]: > 100 µM (inactive)
GI50 [23]: > 100 µM (inactive)
GI50 [24]: > 100 µM (inactive)
GI50 [25]: > 100 µM (inactive)
GI50 [26]: > 100 µM (inactive)
GI50 [27]: > 100 µM (inactive)
GI50 [28]: > 100 µM (inactive)
GI50 [29]: > 100 µM (inactive)
GI50 [30]: 71 µM (inactive)
GI50 [31]: > 100 µM (inactive)
GI50 [32]: > 100 µM (inactive)
GI50 [33]: > 100 µM (inactive)
GI50 [34]: > 100 µM (inactive)
GI50 [35]: > 100 µM (inactive)
GI50 [36]: > 100 µM (inactive)
GI50 [37]: > 100 µM (inactive)
GI50 [38]: > 100 µM (inactive)
GI50 [39]: > 100 µM (inactive)
GI50 [40]: > 100 µM (inactive)
GI50 [41]: > 100 µM (inactive)
GI50 [42]: > 100 µM (inactive)
GI50 [43]: > 100 µM (inactive)
GI50 [44]: > 100 µM (inactive)
GI50 [45]: > 100 µM (inactive)
GI50 [46]: > 100 µM (inactive)
GI50 [47]: 90.6 µM (inactive)
GI50 [48]: > 100 µM (inactive)
GI50 [49]: > 100 µM (inactive)
GI50 [50]: > 100 µM (inactive)
GI50 [51]: > 100 µM (inactive)
GI50 [52]: > 100 µM (inactive)
GI50 [53]: > 100 µM (inactive)
GI50 [54]: > 100 µM (inactive)

O=c1[nH]c(=S)[nH]c2c(C3OC(CO)C(O)C3O)nsc12 (configuration not stated)
GI50 [1]: > 100 µM (inactive)
GI50 [2]: > 100 µM (inactive)
GI50 [3]: > 100 µM (inactive)
GI50 [4]: > 100 µM (inactive)
GI50 [8]: > 100 µM (inactive)
GI50 [9]: > 100 µM (inactive)
GI50 [10]: > 100 µM (inactive)
GI50 [11]: > 100 µM (inactive)
GI50 [12]: > 100 µM (inactive)
GI50 [13]: > 100 µM (inactive)
GI50 [14]: > 100 µM (inactive)
GI50 [15]: > 100 µM (inactive)
GI50 [55]: > 100 µM (inactive)
GI50 [17]: > 100 µM (inactive)
GI50 [18]: > 100 µM (inactive)
GI50 [19]: > 100 µM (inactive)
GI50 [56]: > 100 µM (inactive)
GI50 [20]: > 100 µM (inactive)
GI50 [21]: > 100 µM (inactive)
GI50 [22]: > 100 µM (inactive)
GI50 [23]: > 100 µM (inactive)
GI50 [24]: > 100 µM (inactive)
GI50 [25]: > 100 µM (inactive)
GI50 [26]: > 10 µM (inactive)
GI50 [27]: > 100 µM (inactive)
GI50 [28]: > 100 µM (inactive)
GI50 [29]: > 100 µM (inactive)
GI50 [57]: > 100 µM (inactive)
GI50 [31]: > 100 µM (inactive)
GI50 [32]: > 100 µM (inactive)
GI50 [33]: > 100 µM (inactive)
GI50 [34]: > 100 µM (inactive)
GI50 [58]: > 100 µM
GI50 [36]: > 100 µM (inactive)
GI50 [38]: > 100 µM (inactive)
GI50 [39]: > 100 µM (inactive)
GI50 [40]: > 100 µM (inactive)
GI50 [41]: > 100 µM (inactive)
GI50 [42]: > 100 µM (inactive)
GI50 [43]: > 100 µM (inactive)
GI50 [45]: > 100 µM (inactive)
GI50 [46]: > 100 µM (inactive)
GI50 [47]: > 100 µM (inactive)
GI50 [48]: > 100 µM (inactive)
GI50 [49]: > 100 µM (inactive)
GI50 [50]: > 100 µM (inactive)
GI50 [51]: > 100 µM (inactive)
GI50 [52]: > 100 µM (inactive)
GI50 [53]: > 100 µM (inactive)
GI50 [54]: > 100 µM (inactive)

N=C(N)N/N=C/c1c(Cl)nc2n1CCS2
GI50 [1]: > 100 µM (inactive)
GI50 [2]: 48.4 µM (inactive)
GI50 [3]: > 100 µM (inactive)
GI50 [4]: 66.5 µM (inactive)
GI50 [5]: 96.2 µM (inactive)
GI50 [6]: > 100 µM (inactive)
GI50 [7]: > 100 µM (inactive)
GI50 [8]: > 100 µM (inactive)
GI50 [9]: 82.4 µM (inactive)
GI50 [10]: 22.5 µM (inactive)
GI50 [11]: > 100 µM (inactive)
GI50 [12]: > 100 µM (inactive)
GI50 [59]: > 100 µM (inactive)
GI50 [13]: > 100 µM (inactive)
GI50 [14]: 99.1 µM (inactive)
GI50 [15]: 50.8 µM (inactive)
GI50 [55]: > 100 µM (inactive)
GI50 [16]: 49.4 µM (inactive)
GI50 [17]: 45.3 µM (inactive)
GI50 [18]: > 100 µM (inactive)
GI50 [19]: > 100 µM (inactive)
GI50 [56]: > 100 µM (inactive)
GI50 [20]: 34.7 µM (inactive)
GI50 [21]: > 100 µM (inactive)
GI50 [22]: 56.4 µM (inactive)
GI50 [23]: 71.9 µM (inactive)
GI50 [24]: 47.5 µM (inactive)
GI50 [25]: > 100 µM (inactive)
GI50 [26]: 50.5 µM (inactive)
GI50 [27]: 62.5 µM (inactive)
GI50 [28]: 38.1 µM (inactive)
GI50 [29]: > 100 µM (inactive)
GI50 [57]: > 100 µM (inactive)
GI50 [30]: 34.8 µM (inactive)
GI50 [31]: 62.5 µM (inactive)
GI50 [32]: 73.8 µM (inactive)
GI50 [33]: > 100 µM (inactive)
GI50 [34]: 46.8 µM (inactive)
GI50 [35]: 42.4 µM (inactive)
GI50 [58]: > 100 µM
GI50 [36]: 90.8 µM (inactive)
GI50 [37]: 54.7 µM (inactive)
GI50 [38]: 64.1 µM (inactive)
GI50 [39]: 90.2 µM (inactive)
GI50 [40]: 76.9 µM (inactive)
GI50 [41]: 29 µM (inactive)
GI50 [42]: 57.3 µM (inactive)
GI50 [43]: 59.4 µM (inactive)
GI50 [45]: 46.1 µM (inactive)
GI50 [46]: 16.6 µM (inactive)
GI50 [47]: 38 µM (inactive)
GI50 [48]: 53.2 µM (inactive)
GI50 [49]: > 100 µM (inactive)
GI50 [50]: 70.3 µM (inactive)
GI50 [51]: 44.4 µM (inactive)
GI50 [52]: > 10 µM (inactive)
GI50 [53]: > 100 µM (inactive)
GI50 [54]: > 100 µM (inactive)
